In ChEMBL document CHEMBL4177715, “Synthesis of radioiodinated probes targeted toward matrix metalloproteinase-12” (Bioorg Med Chem Lett, 2018) one finds IC50 data, which are given here for 5 compounds.

Test [1] has as its target Macrophage metalloelastase (Homo sapiens, UniProt P39900). The test can be described thus: Inhibition of recombinant human MMP12 using Mca-Pro-Leu-Gly-Leu-Dpa(Dnp)-Ala-Arg-NH2 as substrate after 30 mins by fluorescence spectrometry.
In test [2] the target is Collagenase 3 (Homo sapiens, UniProt P45452). Nature of the test: Inhibition of recombinant human MMP13 using Mca-Pro-Leu-Gly-Leu-Dpa(Dnp)-Ala-Arg-NH2 as substrate after 30 mins by fluorescence spectrometry.

A word on the IC50: it is the concentration that gives 50% inhibition.

Macrophage metalloelastase, sequence (P39900 whole entry): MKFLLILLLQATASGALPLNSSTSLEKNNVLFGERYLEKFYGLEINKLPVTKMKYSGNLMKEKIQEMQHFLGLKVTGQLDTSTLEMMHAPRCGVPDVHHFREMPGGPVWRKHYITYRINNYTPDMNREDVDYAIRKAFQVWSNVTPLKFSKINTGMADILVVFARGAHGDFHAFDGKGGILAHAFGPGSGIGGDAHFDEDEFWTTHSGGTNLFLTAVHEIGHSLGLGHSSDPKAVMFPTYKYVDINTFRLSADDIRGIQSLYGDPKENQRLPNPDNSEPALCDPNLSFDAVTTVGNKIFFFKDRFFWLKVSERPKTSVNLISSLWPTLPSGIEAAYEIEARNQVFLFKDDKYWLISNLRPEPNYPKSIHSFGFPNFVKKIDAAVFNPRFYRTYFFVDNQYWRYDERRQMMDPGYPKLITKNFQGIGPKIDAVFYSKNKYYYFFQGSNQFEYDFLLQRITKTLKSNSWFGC

`CC(C)[C@H](NS(=O)(=O)c1ccc2c(c1)oc1ccc(NS(=O)(=O)c3ccc(I)cc3)cc12)C(=O)O`: the IC50 is 297 nM in test [1] and 403 nM in test [2]. As for `CC(C)[C@H](NS(=O)(=O)c1ccc2c(c1)oc1ccc(NC(=O)c3ccc(I)cc3)cc12)C(=O)O`, the IC50 was 502 nM in test [1] and above 2000 nM in test [2]. In the same order, the values of `CC(C)[C@H](NS(=O)(=O)c1ccc2c(c1)oc1ccc(NC(=O)Oc3ccc(Br)cc3)cc12)C(=O)O` are 11 nM and 51 nM.

Take `CC(C)[C@H](NS(=O)(=O)c1ccc2c(c1)oc1ccc(NC(=O)Oc3ccc(F)cc3)cc12)C(=O)O`: in test [2], the IC50 is 65 nM. With `CC(C)[C@H](NS(=O)(=O)c1ccc2c(c1)oc1ccc(NC(=O)Oc3ccc(I)cc3)cc12)C(=O)O`, the IC50 in test [1] amounted to 8.5 nM; in test [2], 69 nM.
